Columns and labels:
[1] = for Transport of total TST derivatives in lymph (% of dose): anaesthetised, mesenteric lymph-duct cannulated female SD rats, intraduodenal infusion 0-2 h, cumulative over 8 h; for Fold increase (compared with control group dosed with TU): lymphatic transport of total TST derivatives, female SD rats, intraduodenal infusion
Protocol: Lipid formulations containing the compound of interest were then administered to the animals, the lymph collected and drug concentrations in the lymph subsequently quantified.
Lipid-based formulations of the compounds of the invention or control compounds were prepared as previously described (Trevaskis, N. L. et al., Pharmaceutical Research, 2005, 22(11), 1863-1870). Briefly, approximately 2 mg of the compound (1 mg in the case of Compound 35 and Compound 1), 40 mg oleic acid and 25 mg Tween 80 were mixed in a glass vial until equilibrated (gentle heat (below 50° C.) may be applied for a short period).
[…] This was to eliminate the potential for the relatively high and variable levels of endogenous testosterone in male rats interfering with the quantification of exogenously dosed testosterone. Rats (240-320 g) were maintained on a standard diet and fasted overnight with free access to water prior to experiments. Anaesthetised rats were placed on a heated pad at 37° C. and cannulas were inserted into the duodenum (for formulation administration and rehydration), mesenteric lymph duct (for lymph collection) and carotid artery (for blood collection) as previously described (Edwards et al. Advanced Drug Delivery Reviews 2001, 50(1), 45-60). Post-surgery, rats were re-hydrated for 0.5 h via intraduodenal infusion of normal saline at 2.8 mL/h. The lipid formulations were infused into the duodenum at 2.8 mL/h for 2 h, after which the infusion was changed to 2.8 mL/h normal saline for the remainder of the experiment. Lymph was continuously collected for 6 to 8 h into pre-weighed Eppendorf tubes containing 10 μL of 1,000 IU/mL heparin. The collection tubes were changed hourly and lymph flow was measured gravimetrically. Aliquots of hourly lymph samples were stored at −80° C. prior to assay.
Drug concentration in lymph is expressed as total drug and includes free drug and drug associated with different glycerides. This is assayed by hydrolysis of lymph (to liberate drug from any re-esterified glycerides) prior to assessment of free drug.
FIG. 1 illustrates the cumulative lymphatic transport of total testosterone related derivatives (% of administered dose) versus time in anaesthetised mesenteric lymph duct cannulated female SD rats following intraduodenal infusion of formulations from 0 to 2 h. Each Formulation contained 2 mg of the exemplified compound or the control, testosterone undecanoate (TU), dispersed in 40 mg oleic acid, 25 mg Tween 80 and 5.6 ml PBS.

[2] = Pharmacokinetic study in rats, testosterone plasma concentrations after oral gavage; settings: for systemic exposure of parent testosterone (dose-normalised plasma AUC0-24h), fold greater than after Compound 41 or Compound 10: oral administration; for systemic exposure of parent testosterone (dose-normalised plasma AUC0-24h), fold greater than after Compound 41 or Compound 10 / AUC0-24 h fold increase compared with TU group: SD female rats; for AUC0-24 h fold increase compared with TU group / Tmax / AUC0-24 h / Cmax: testosterone in plasma, oral gavage; for AUC0-24 h fold increase compared with TU group: dose-normalized; for Tmax / AUC0-24 h / Cmax: conscious carotid artery cannulated SD female rats; for AUC0-24 h / Cmax: normalized to 2 mg/kg equivalent testosterone dose
Protocol: In order to assess the oral bioavailability of the compounds of the invention, pharmacokinetic studies were conducted in rats and dogs. […] The rats were then allowed to regain consciousness and fasted overnight prior to the commencement of experiments with free access to water. […] The oral formulation of Compound 2 contained 3 mg of the compound, 20 mg oleic acid and 12.5 mg Tween 80 dispersed in 1 mL PBS. Blood samples were collected from the carotid artery cannula from 5 min prior to administration up to 24 h post-dosing and centrifuged at 5000 rpm for 5 min to separate plasma. […] Plasma samples were stored at −80° C. prior to assay by HPLC-MS-MS. In this case samples were assayed for free drug (i.e. non-glyceride associated drug) and were not hydrolysed prior to assay (as was the case with the lymph samples).
FIG. 12 illustrates dose-normalized testosterone plasma concentrations following oral gavage of formulations to conscious, carotid artery cannulated female SD rats. Formulations contained 1 mg of TU, or 2 mg of compounds of the invention containing testosterone dispersed in 40 mg oleic acid, 25 mg Tween 80 and 2 ml PBS. Doses are normalized to a 2 mg/kg equivalent dose of testosterone. Data are shown as mean±SEM for all groups (n=4 or 3 for each group). The embedded figure is the plot of the dose-normalized plasma AUC0-24h (nmol×h/L) of testosterone in the form of a bar graph.

[3] = tested on: porcine pancreatic lipase; assay: In vitro hydrolysis by porcine pancreatic lipase; assay type: in vitro ADME; settings: 37° C., simulated intestinal micellar solution pH 6.5, up to 180 min
Protocol: To provide for higher throughput of experiments, unless otherwise stated, in vitro hydrolysis of TST related compounds was performed via incubation with porcine pancreatic lipase. This provides a more reproducible source of pancreatic enzymes, facilitates enhanced experimental throughput and is also a greater challenge than collected rat enzymes (since enzyme activity in rat intestinal fluid is low). Briefly, pancreatic lipase solution was prepared prior to the hydrolysis experiment by dispersion of 1 g porcine pancreatin in 5 ml of lipolysis buffer and 16.9 μl of 5M NaOH. The suspension was mixed well and centrifuged at 3500 rpm for 15 minutes at 5° C. to provide a supernatant. An amount of 1000 ml of lipolysis buffer was prepared with 0.474 g of tris-maleate (2 mM), 0.206 g of CaCl2.H2O (1.4 mM) and 8.775 g of NaCl (150 mM) adjusted with NaOH to pH 6.5. To assess the potential for prodrug hydrolysis in the intestine, 20 μl of prodrug solution (1 mg/ml dissolved in acetonitrile), 900 μl of simulated intestinal micellar solution [prepared with 0.783 g of NaTDC (3 mM) and 0.291 g of phosphatidyl choline (0.75 mM) in 500 ml lipolysis buffer] and 100 μl of enzyme solution were incubated at 37° C. 20 μl samples of the incubation solution were taken at 0, 5, 10, 15, 30, 60, 90, 120 and 180 minutes post incubation and added to 180 μl of ACN to stop lipolysis. The mixture was vortexed and centrifuged at 5000 rpm for 5 minutes to precipitate proteins prior to analysis. The supernatant was analysed by HPLC-MS for residual compound concentrations, and the potential products of compound hydrolysis were analysed.
On incubation with digestive enzymes the monoglycerides forms of the prodrugs are formed very rapidly. The stability in simulated intestinal conditions is therefore better assessed by the stability of the monoglycerides form that is generated by the initial digestion process. The monoglycerides form must remain intact to be absorbed and re-esterified in the enterocyte prior to entry into the lymphatics. […] This is consistent with the increase in lymphatic transport of Compound 18 when compared to Compound 10, and the high extent of lymphatic transport of Compound 16 in FIG. 4.

[4] = Pharmacokinetic study in greyhound dogs, testosterone plasma concentrations after oral administration; assay type: in vivo; settings: for Cmax / Tmax / AUC0-24 h: oral capsules; for Cmax / AUC0-24 h: normalized to 2 mg/kg equivalent testosterone dose
Protocol: For the dog studies, female greyhound dogs were held in a large animal research facility for at least 5 days prior to the commencement of studies. The dogs were allowed to acclimatise for at least 4 days prior to commencing the study. The dogs were fasted for 12 h up to 30 min prior to drug administration. For the fed state studies (n=4 for TU or Compound 13), dogs received 680 g of standard commercial dog food containing 5% fat min prior to drug administration. In the fasted study (n=1 for Compound 13), the dog remained fasted until after 4 h post-dose. Water was available ad libitum throughout the study for all dogs. On the study day, a 20 gauge intravenous catheter was inserted into a cephalic vein to allow blood sampling. The dogs were free to move around (not restrained) after cannulation. For the fed state studies, Andriol Testocaps (the commercial TU product) or Compound 13 was given to the dogs. Andriol Testocaps were supplied by Merck Sharp & Dohme (Australia) Pty Limited and were formulated as soft gelatin capsule containing a 12.0% (w/w) solution of TU in lauroglycol FCC/castor oil [40:60% (w/w)] with the individual capsule composition being 40 mg of TU, lauroglycol FCC, castor oil, gelatin, glycerol, and sunset yellow (E110). Compound 13 was prepared in a long-chain lipid based self-emulsifying drug delivery system (SEDDS) that consisted of 30.5% w/w soybean oil, 30.5% w/w Maisine 35-1, 31.6% w/w Cremophor EL and 7.4% w/w ethanol. Formulations were filled into hard gelatin capsules. Two capsules of Andriol Testocaps containing 80 mg TU or two capsules of Compound 13 containing a total dose of 90 mg Compound 13 dissolved in 2 g of the SEDDS formulation were administrated to the fed greyhound dog by placing the capsules as far posterior to the pharynx as possible, closing the mouth and rubbing the throat to stimulate swallowing. Subsequently 50 mL of water was administered orally via a syringe. Two capsules of Compound 13 formulation were also administrated to the fasted dogs for fasted state studies. After oral administration, blood samples (approx. 3 mL each) were taken via the cephalic vein cannula from 5 min prior to administration up to 10 hours post-dosing. The patency of the catheters was maintained by flushing with a small volume of heparinised saline (1-2 IU/mL) after each blood sample was withdrawn. Blood samples at 24 h were taken by venepuncture. Plasma was separated by centrifugation and aliquots of each plasma sample were transferred into eppendorf tubes and store at −80° C. prior to analysis by LC-MS-MS.

[5] = greyhound dog, fasted state (n = 1)

Compound	Transport of total TST derivatives in lymph (% of dose) [1]	Fold increase (compared with control group dosed with TU) [1]	systemic exposure of parent testosterone (dose-normalised plasma AUC0-24h), fold greater than after Compound 41 or Compound 10 [2]	AUC0-24 h fold increase compared with TU group [2]	Tmax [2]	AUC0-24 h [2]	Cmax [2]	stability of the monoglyceride form during in vitro incubation with porcine pancreatic lipase [3]	AUC0-24 h fold increase compared with TU group ([4]; greyhound dog, fasted state (n = 1), dose-normalized)	Cmax ([4]; conscious greyhound dogs, fed state, TU as Andriol Testocaps, Compound 13 in SEDDS)	Tmax [4, 5]	AUC0-24 h [4, 5]	Cmax [4, 5]	Tmax ([4]; greyhound dogs, fed state)	AUC0-24 h ([4]; greyhound dogs, fed state)
CCCCCCCCCCCCCCCC(=O)OCC(COC(=O)CCCCCCCCCCCCCCC)OC(=O)CCCCC(=O)O[C@H]1CC[C@H]2[C@@H]3CCC4=CC(=O)CC[C@]4(C)[C@H]3CC[C@]12C [Compound 11]	17.0 ± 1.6 % of dose	9.0 fold	10 fold	12.4 fold	1.3 ± 0.1 h	0.0842 ± 0.0093 µM·h	69.9 ± 8.2 nM	not highly stable							
CCCCCCCCCCCCCCCC(=O)OCC(COC(=O)CCCCCCCCCCCCCCC)OC(=O)CCCCC(=O)OCO[C@H]1CC[C@H]2[C@@H]3CCC4=CC(=O)CC[C@]4(C)[C@H]3CC[C@]12C [Compound 21, 1,3-Bis(palmitoyloxy)propan-2-yl (((8R,9S,10R,13S,14S,17S)-10,13-dimethyl-3-oxo-2,3,6,7-8,9,10,11,12,13,14-15,16,17-tetradecahydro-1H-cyclopenta[a]phenanthren-17-yl)oxy)methyl adipate]				44.0 fold	0.7 ± 0.2 h	0.2994 ± 0.1001 µM·h	232 ± 63.2 nM	lower than that of Compound 11							
CCCCCCCCCCCCCCCC(=O)OCC(COC(=O)CCCCCCCCCCCCCCC)OC(=O)C(C)CCCCCCCC(=O)O[C@H]1CC[C@H]2[C@@H]3CCC4=CC(=O)CC[C@]4(C)[C@H]3CC[C@]12C (stereo partly drawn) [Compound 16]	23.2 ± 2.3 % of dose	12.3 fold		15.8 fold	1.3 ± 0.1 h	0.1076 ± 0.014 µM·h	77 ± 14.2 nM	significantly stabilised the monoglyceride intermediates							
CCCCCCCCCCCCCCCC(=O)OCC(COC(=O)CCCCCCCCCCCCCCC)OC(=O)CCCCCCCCC(=O)O[C@H]1CC[C@H]2[C@@H]3CCC4=CC(=O)CC[C@]4(C)[C@H]3CC[C@]12C [Compound 13]			10 fold		0.9 ± 0.1 h	0.1871 ± 0.0358 µM·h	197 ± 53.4 nM	not highly stable	7.3 fold	455 ± 9.4 nM	2.5 h	1.0268 µM·h	386 nM	1.8 ± 0.3 h	1.1166 ± 0.0324 µM·h
CCCCCCCCCCCCCCCC(=O)OCC(COC(=O)CCCCCCCCCCCCCCC)OC(=O)CC(C)CCCCCCC(=O)Oc1cc(C)cc(C)c1C(C)(C)CC(=O)O[C@H]1CC[C@H]2[C@@H]3CCC4=CC(=O)CC[C@]4(C)[C@H]3CC[C@]12C (stereo partly drawn) [Compound 27]				106.4 fold	1.5 ± 0.5 h	0.7238 ± 0.0905 µM·h	428 ± 97.8 nM	remarkably stable							
CCCCCCCCCCCCCCCC(=O)OCC(COC(=O)CCCCCCCCCCCCCCC)OC(=O)CC(C)CC(=O)Oc1cc(C)cc(C)c1C(C)(C)CC(=O)O[C@H]1CC[C@H]2[C@@H]3CCC4=CC(=O)CC[C@]4(C)[C@H]3CC[C@]12C (stereo partly drawn) [Compound 25]				58.5 fold	0.9 ± 0.1 h	0.3992 ± 0.0432 µM·h	419 ± 63.3 nM	remarkably stable							

— US11311512B2, “Lymph directing prodrugs” (priority 2014, dated 2022)
